Read-outs that look alike come from different tables or passages of the source.
Legend:
Format in all cases: biochemical
[1] = tested on: inner mitochondrial membrane potential; assay: Rhodamine 123 (Rh123) uptake, mitochondrial membrane potential of isolated mouse liver mitochondria
Description: We next evaluated the mitochondrial toxicity of the new triazole analogs by testing their ability to interfere with accumulation of the membrane-permeant cationic fluorescent dye rhodamine 123 (Rh123). The mitochondrial uptake of positively charged Rh123 is driven by the inside negative IMM potential, which is built by the respiratory chain or maintained by ATP hydrolysis if certain conditions are met. […] It should be noted, however, that toxicity for these compounds only occurs at ˜10-1000-fold higher concentrations compared to mtPTP inhibition, providing a good therapeutic window.
Assessment of mitochondrial membrane potential. Mitochondrial membrane potential—to evaluate toxicity—of isolated mouse liver mitochondria was assessed based on fluorescence quenching of the cationic fluorescent dye Rh123 upon its accumulation into mitochondrial matrix due to inside negative membrane potential. Compounds that interfere with the build-up or maintenance of IMM potential would shift Rh123 fluorescence to higher values compared to DMSO treated samples. Uncoupler FCCP was used to account for nonspecific fluorescence. First, 0.1 mL of SAB was dispensed to a 96-well black assay plate. A set of wells also contained 0.8 μm FCCP (to prevent Rh123 uptake). The test wells contained a range of concentrations (in 1:2 serial dilutions) of the compounds of interest or 2% DMSO. Then, 0.1 mL of 0.5 mg/mL mitochondria in SAB devoid of respiratory substrates but supplemented with 0.8 μm Rh123 were added to all wells of the assay plate. Fluorescence intensity (ex/em 485/535 nm) was read on a Tecan Infinite F200 plate reader for 7 min and value at 5 min was considered for analysis. EC50s±SE were determined with OriginPro software by applying Hill1 function fitting algorithm on average concentration response data of n=3 independent preparations.

mtPTP [2] = assay: Ca2+ retention capacity (CRC) of isolated mouse liver mitochondria
Description: CRC determines the Ca^2+ threshold required for mtPTP activation; inhibitors of mtPTP are expected to increase the Ca^2+ threshold required for mtPTP induction. Extramitochondrial Ca^2+ changes are detected using the membrane-impermeant Ca^2+ indicator, Calcium Green-5N.
(§1) Isolation of mitochondria. C57BL6/N mouse liver mitochondria were prepared from 2 to 6 month old male mice by standard differential centrifugation. Mice fed ad libitum were euthanized with CO2 followed cervical dislocation, their livers were existed and placed in a glass beaker containing ice-cold isolation buffer (IB: 0.25 m sucrose, 10 mm Tris-HCl, 0.1 mm EGTA-Tris, pH 7.4) supplemented with fatty acid free bovine serum albumin. Livers were then cut into small pieces with scissors, rinsed with ice-cold IB, and passed through a pre-chilled Potter homogenizer with Teflon pestle. The homogenate (˜30 mL per liver) was transferred to centrifuge tubes, and unbroken cells and nuclei were removed by centrifugation at 700 g for 10 min at 4° C. The supernatant containing mitochondria and other organelles was transferred to new tubes and centrifuged at 6000 g for 10 min at 4° C. The resulting supernatant was discarded and mitochondrial pellet was carefully suspended in ice-cold IB and spun at 9500 g for 5 min at 4° C. The pellet was suspended in IB to give a protein concentration of ˜60-80 mg/mL and stored on ice. Experiments were started immediately and completed within 5 h. Protein concentration was determined by the Biuret method.
Assessment of Ca^2+ retention capacity (CRC). CRC of isolated mouse liver mitochondria was assessed as follows: First, 0.1 mL of SAB were dispensed to a 96-well black assay plate in the presence of 2% DMSO (control wells) or varying concentrations of test compounds, in 1:2 serial dilutions. Then, 0.1 mL of 0.5 mg/mL mitochondria in SAB devoid of respiratory substrates, but supplemented with 1 μm Calcium Green-5N were added to all wells of the assay plate. A train of 10 μm CaCl2 pulses was added at 2 min intervals, and fluorescence intensity (ex/em 485/535 nm) was read on Tecan Infinite F200 plate reader.

mtPTP [3] = assay: Ca2+ overload induced mitochondrial swelling in isolated mouse liver mitochondria; conditions: for mtPTP inhibitory activity (in words): SAR discussion of Table 2
Description: We next sought to evaluate the effects of TR001-13 on mtPTP activity in vitro. This was performed on isolated mitochondria. In isolated mitochondria induction of mtPTP opening leads to mitochondrial swelling due to the oncotic pressure gradient created by matrix proteins >1.5 kDa that cannot diffuse through the open pore. In in vitro experiments, where isolated mitochondria are routinely suspended in sucrose-based isosmotic solutions, the change in mitochondrial size can be measured spectrometrically by detecting the decrease in light scattering at 540 nm.
as §1
Assessment of mitochondrial swelling. Changes in mitochondrial volume of isolated mouse liver mitochondria were followed in a 96-well clear assay plate at a final volume of 0.2 mL and 0.25 mg/mL mitochondrial protein. Absorbance was read for 30 min at 540 nm on a Tecan Infinite F200 plate reader. Activity of test compounds was addressed as follows: First, 0.1 mL of sucrose assay buffer (SAB: 0.250 m sucrose, 10 mm MOPS-Tris, 0.01 mm EGTA-Tris, 1.0 mm phosphoric acid-Tris, 10 mm glutamate and 5 mm malate, pH 7.4) supplemented with twice the CaCl2 concentration required to induce mitochondrial swelling (which was determined for each preparation of mitochondria, typically 50 μm) was dispensed to the assay plate. A set of wells also contained 2.0 mm EGTA (to prevent mitochondrial swelling). The test wells contained a range of concentrations (in 1:2 serial dilutions) of the compounds of interest or 2% DMSO. Experiments were started by the addition of 0.1 mL of mitochondrial suspension (0.5 mg/mL mitochondria in SAB without respiratory substrates) to the assay plates. EC50s±SE were determined with OriginPro software by applying Hill1 function fitting algorithm on average concentration response data of n=3-41 independent preparations.

[4] = Mouse Liver Mitochondria (MLM), comparative examples, read-out: Rh123 EC50
[5] = Mouse Liver Mitochondria (MLM), comparative examples
[6] = Mouse Liver Mitochondria (MLM), comparative examples, read-out: Swelling EC50
[7] = interference with Rh123 uptake to mitochondria, average ± SEM, n = 3, read-out: Rh123 uptake EC50
[8] = compound treated CRC to DMSO treated CRC0 ratio, 1.25 μM, average ± SEM, n = 3-25
[9] = isolated mouse liver mitochondria, average ± SEM, n = 3-41, read-out: Mitochondrial Swelling EC50

EC50 [1, 4] [µM] | EC50 (mtPTP [3]; [6]) [µM] | EC50 [1, 7] [µM] | EC50 (mtPTP [3]; [9]) [µM] | Compound | CRC/CRC0 at 1.25 μM (mtPTP [2]; [5]) | CRC/CRC0 at 1.25 μM (mtPTP [2]; [8]) | mtPTP inhibitory activity (in words) (mtPTP [3]) | fold decrease in activity compared to TR002 (mtPTP [3]; mitochondrial swelling, vs TR002) [fold]
> 40 | 0.475 |  |  | Cc1ccc(Cl)cc1NC(=O)c1cn(-c2ccc(Br)c(O)c2)nn1 [drawing 60] | 2.4 |  |  | 
> 40 | > 20 |  |  | Cc1ccc(Cl)cc1NC(=O)c1cn(-c2cccc(O)c2Cl)nn1 [drawing 70] | 1.2 |  |  | 
 |  | > 40 | > 20 | Cc1ccc(Cl)cc1NC(=O)c1cn(-c2ccc(C)c(O)c2Cl)nn1 [TR010, N-(5-chloro-2-methylphenyl)-1-(2-chloro-3-hydroxy-4-methylphenyl)-1H-1,2,3-triazole-4-carboxamide] |  | 1.1 ± 0.1 |  | 
 | > 20 |  |  | Cc1ccc(Cl)cc1NC(=O)c1cn(-c2ccc(F)c(N)c2)nn1 | 1 |  |  | 
6 | 0.534 |  |  | Cc1ccc(Cl)cc1NC(=O)c1cn(-c2cc(O)cc(C(F)(F)F)c2)nn1 [drawing 71] | 3 |  |  | 
 |  | > 40 | 0.475 ± 0.057 | Cc1ccc(Cl)cc1NC(=O)c1cn(-c2ccc(Br)c(O)c2)nn1 [TR009, 1-(4-bromo-3-hydroxyphenyl)-N-(5-chloro-2-methylphenyl)-1H-1,2,3-triazole-4-carboxamide] |  | 2.4 ± 0.2 | decreased activity | 
> 40 | 0.581 |  |  | CCOC(=O)Oc1cc(-n2cc(C(=O)Nc3cc(Cl)ccc3C)nn2)ccc1F | 1.8 |  |  | 
 |  | 6.2 ± 1.2 | 0.534 ± 0.047 | Cc1ccc(Cl)cc1NC(=O)c1cn(-c2cc(O)cc(C(F)(F)F)c2)nn1 [TR013, N-(5-chloro-2-methylphenyl)-1-(3-(trifluoromethyl)-5-hydroxyphenyl)-1H-1,2,3-triazole-4-carboxamide] |  | 2.9 ± 0.1 | significantly reduced activity | 
 |  | > 40 | > 20 | Cc1ccc(Cl)cc1NC(=O)c1cn(-c2cc(O)ccc2F)nn1 [TR004, N-(5-chloro-2-methylphenyl)-1-(2-fluoro-5-hydroxyphenyl)-1H-1,2,3-triazole-4-carboxamide] |  | 1.3 ± 0.03 | inactive | 
 |  | 14.1 ± 1.2 | 0.01 ± 0.002 | Cc1ccc(Cl)cc1NC(=O)c1cn(-c2cc(O)cc(F)c2)nn1 [TR002, N-(5-chloro-2-methylphenyl)-1-(3-fluoro-5-hydroxyphenyl)-1H-1,2,3-triazole-4-carboxamide] |  | 12.6 ± 0.6 | most potent analog | 
> 40 | 0.083 |  |  | CC(=O)Oc1cc(-n2cc(C(=O)Nc3cc(Cl)ccc3C)nn2)ccc1F | 4.5 |  |  | 
 |  | > 40 | 0.782 ± 0.114 | Cc1ccc(Cl)cc1NC(=O)c1cn(-c2ccc(F)c(O)c2F)nn1 [TR005] |  | 2.6 ± 0.2 | decreased activity | 
 | > 20 |  |  | CC(=O)Nc1cc(-n2cc(C(=O)Nc3cc(Cl)ccc3C)nn2)ccc1F | 1 |  |  | 
> 40 | 5.2 |  |  | CC(=O)c1ccc(C)c(NC(=O)c2cn(-c3ccc(F)c(O)c3)nn2)c1 | 1.4 |  |  | 
 |  | > 40 | 0.028 ± 0.005 | Cc1ccc(Cl)cc1NC(=O)c1cn(-c2cc(O)cc(Cl)c2)nn1 [TR008, N-(5-chloro-2-methylphenyl)-1-(3-chloro-5-hydroxyphenyl)-1H-1,2,3-triazole-4-carboxamide] |  | 7.3 ± 1.1 |  | 2
14 | 0.01 |  |  | Cc1ccc(Cl)cc1NC(=O)c1cn(-c2cc(O)cc(F)c2)nn1 [drawing 52] | 13.09 |  |  | 
> 40 | 10.6 |  |  | Cc1ccc(Cl)cc1NC(=O)c1cn(-c2cccc(O)c2C)nn1 [drawing 68] | 1.4 |  |  | 
> 40 | 0.028 |  |  | Cc1ccc(Cl)cc1NC(=O)c1cn(-c2cc(O)cc(Cl)c2)nn1 [drawing 69] | 7.3 |  |  | 
> 40 | > 20 |  |  | Cc1ccc(-n2cc(C(=O)Nc3cc(Cl)ccc3C)nn2)cc1O [drawing 67] | 1.4 |  |  | 
 | > 20 |  |  | Cc1ccc(Cl)cc1NC(=O)c1cn(-c2cccc(C(=O)O)c2)nn1 | 1 |  |  | 
> 40 | > 20 |  |  | Cc1ccc(Cl)cc1NC(=O)c1cn(-c2ccc(C)c(O)c2Cl)nn1 [drawing 66] | 1 |  |  | 
 |  | > 40 | 0.135 ± 0.015 | Cc1ccc(Cl)cc1NC(=O)c1cn(-c2ccc(Cl)c(O)c2)nn1 [TR006, N-(5-chloro-2-methylphenyl)-1-(4-chloro-3-hydroxyphenyl)-1H-1,2,3-triazole-4-carboxamide] |  | 3.9 ± 0.3 | decreased activity | 
> 40 | 0.513 |  |  | C#Cc1ccc(Cl)cc1NC(=O)c1cn(-c2ccc(F)c(O)c2)nn1 | 3.7 |  |  | 
 | > 20 |  |  | C#Cc1ccc(C(C)=O)cc1NC(=O)c1cn(-c2ccc(F)c(O)c2)nn1 |  |  |  | 
 | > 20 |  |  | Cc1ccc(Cl)cc1NC(=O)c1cn(-c2ccc(F)c(NS(=O)(=O)C(F)(F)F)c2)nn1 | 1 |  |  | 
 | > 20 |  |  | Cc1ccc(Cl)cc1NC(=O)c1cn(-c2ccc3[nH]c(=O)[nH]c3c2)nn1 | 1 |  |  | 
 | > 20 |  |  | Cc1ccc(Cl)cc1NC(=O)c1cn(-c2ccc(Br)c(NS(C)(=O)=O)c2)nn1 | 1 |  |  | 
 | > 20 |  |  | Cc1ccc(Cl)cc1NC(=O)c1cn(-c2ccc(F)c(NC(=O)C(F)(F)F)c2)nn1 | 1 |  |  | 

Compound | EC50 [1, 4] [µM] | EC50 (mtPTP [3]; [6]) [µM] | EC50 [1, 7] [µM] | EC50 (mtPTP [3]; [9]) [µM] | CRC/CRC0 at 1.25 μM (mtPTP [2]; [5]) | CRC/CRC0 at 1.25 μM (mtPTP [2]; [8]) | mtPTP inhibitory activity (in words) (mtPTP [3]) | fold decrease in activity compared to TR002 (mtPTP [3]; mitochondrial swelling, vs TR002) [fold]
Cc1ccc(Cl)cc1NC(=O)c1cn(-c2ccc(F)c(OC(=O)N(C)C)c2)nn1 |  | 0.153 |  |  | 3.9 |  |  | 
Cc1ccc(Cl)cc1NC(=O)c1cn(-c2ccc(F)c(O)c2)nn1 [drawing 47] | 10 | 4 |  |  | 1 |  |  | 
Cc1ccc(Cl)cc1NC(=O)c1cn(-c2cc(F)cc(OC(=O)N(C)C)c2)nn1 |  | > 20 |  |  | 1.5 |  |  | 
